# Measurements as given in patent publication US5591613A, “Method for the preparation of D-arginine and L-ornithine” (Degussa Aktiengesellschaft, priority 1990, dated 1997).
# Key:
# Calf liver arginase [1] = target: T1, Calf liver arginase (Bos taurus, UniProt Q2KJ64); test: Arginase-catalysed hydrolysis of L-Arg to L-Orn, initial rates in batch, with and without inhibitors; format: biochemical; conditions: for Vo Arginase / conversion after 2 hrs.: 0.75 M L-Arg; for Vo Arginase / conversion after 2 hrs. / conversion (%) after 1.0 hrs / conversion (%) after 1.5 hrs / conversion (%) after 2.0 hrs / ro, arginase: starting pH 11.5; for kind of inhibition / substrate behaviour: from conversion-time profiles (FIG. 3); for conversion (%) after 1.0 hrs / conversion (%) after 1.5 hrs / conversion (%) after 2.0 hrs / ro, arginase: 0.5 M L-Arg; for ro, arginase %: relative to 100:0
# T1 construct: purchased Boehringer Mannheim (Mannheim, F.R.G.)
# T1 sequence (Q2KJ64 1-322): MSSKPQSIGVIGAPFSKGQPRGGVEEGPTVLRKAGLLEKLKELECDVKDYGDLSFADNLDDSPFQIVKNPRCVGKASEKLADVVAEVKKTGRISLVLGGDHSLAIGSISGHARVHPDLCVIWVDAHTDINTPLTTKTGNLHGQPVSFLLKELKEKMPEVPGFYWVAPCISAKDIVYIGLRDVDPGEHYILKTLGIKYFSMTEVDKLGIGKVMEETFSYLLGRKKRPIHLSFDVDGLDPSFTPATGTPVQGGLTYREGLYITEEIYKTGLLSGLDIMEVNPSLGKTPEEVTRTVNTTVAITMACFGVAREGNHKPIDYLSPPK
# Procedure: In further experiments, the materials used were: Calf liver arginase (activity 110 U/mg) which was obtained from Boehringer Mannheim (Mannheim, F.R.G.). Amino acids were from Rexim (Ham, France). MnSO4, MnO2, and ascorbic acid were from E. Merck (Darmstadt, F.R.G.).
# (§1) Batch conditions used were: Starting pH value, except for the activity-pH curve, was either 11.5, the natural value for L-Arg in water, or 9.5, adjusted from pH 11.5 with conc. HCl. The temperature was 25° C. unless otherwise noted. Typical concentrations of L-Arg were 0.75M. Unless otherwise mentioned, [Mn2^+ ]=5-10^-4 M. Reaction progress was followed by HPLC (amino column, mobile phase: phosphate buffer (pH 6.4)/acetonitrile).
# Kinetic data was obtained as follows: Initial rate data were analyzed by a non-linear regression method (Marquardt routine) with the program OPTI (U. Giesecke, KFA J ulich).
# A linear slope of 1/[S] vs. [I] plot distinguishes a purely competitive inhibition mechanism from a partially competitive one. Simultaneously, the apparent and the intrinsic KM -value are proportional to [I] according to equation (5) from which the inhibition constant KI can be calculated
# Since the runs have been conducted at [LArg]=50 mM=2·Km,intr,Vo =Vmax ·2·KM,intr /(KM,intr (3+[I]/KI))=Vmax ·2/(3+[I]/KI). At [I]=KI, Vo =Vmax 2/(3+1)=Vmax /2. So, KI can be calcuated with sufficient accuracy from a Vo vs. [I] plot such as FIG. 4. […] In this work, however, maximum product concentration was sought for optimal space-time-yield and work-up efficiency.
# arginase = conditions: literature value; cited from earlier work
# ox liver arginase = conditions: literature; cited from earlier work
# Calf liver arginase [2] = target: T1, Calf liver arginase; test: Activation of arginase by Mn2+ ions; format: biochemical
# Procedure: as §1
# Activation by Mn^2+ ions and MnO2 precipitation: An optimum concentration of the activator Mn^2+ of 0.5 mM was found. At the prevalent alkaline pH values, MnO2 from the oxidation of Mn^2+ precipitates. To suppress oxidation, ascorbic acid was added as an reducing agent.
smiles,measurement,setting,value
"NCCCC[C@H](N)C(=O)O [L-Lys, reference compound]",Vo Arginase,Calf liver arginase [1]; inhibitor 0.1 M,0.129 mol/L/h
same,conversion after 2 hrs.,Calf liver arginase [1]; inhibitor 0.1 M,34.3%
same,Vo Arginase,Calf liver arginase [1]; inhibitor 0.2 M,0.120 mol/L/h
same,conversion after 2 hrs.,Calf liver arginase [1]; inhibitor 0.2 M,32.1%
same,Vo Arginase,Calf liver arginase [1]; inhibitor 0.4 M,0.086 mol/L/h
same,conversion after 2 hrs.,Calf liver arginase [1]; inhibitor 0.4 M,22.9%
same,Vo Arginase,Calf liver arginase [1]; inhibitor 0.5 M,0.075 mol/L/h
same,conversion after 2 hrs.,Calf liver arginase [1]; inhibitor 0.5 M,19.9%
same,Vo Arginase,Calf liver arginase [1]; inhibitor 0.75 M,0.066 mol/L/h
same,conversion after 2 hrs.,Calf liver arginase [1]; inhibitor 0.75 M,17.5%
same,activity at 100000 µM,Calf liver arginase [1]; read-out: Vo Arginase (%),85.3%
same,activity at 200000 µM,Calf liver arginase [1]; read-out: Vo Arginase (%),79.9%
same,activity at 400000 µM,Calf liver arginase [1]; read-out: Vo Arginase (%),57%
same,activity at 500000 µM,Calf liver arginase [1]; read-out: Vo Arginase (%),49.5%
same,activity at 750000 µM,Calf liver arginase [1]; read-out: Vo Arginase (%),43.5%
same,Ki,arginase,1300 µM
"NCCC[C@H](N)C(=O)O [L-Orn, L-ornithine]",Ki,arginase,1300 µM
"N=C(N)NCCC[C@H](N)C(=O)O [L-Arg, L-arginine]",kind of inhibition / substrate behaviour,Calf liver arginase [1],not a substrate inhibitor
same,Vmax,Calf liver arginase [1]; nonlinear regression of initial rate data with L-Arg,459 Units (=μmol/(min·mg))
same,Km,arginase,4 mM
same,Km,ox liver arginase,29 mM
[Mn+2] [Mn^2+],optimum concentration of the activator,Calf liver arginase [2],0.5 mM
"N=C(N)NCCC[C@@H](N)C(=O)O [D-Arg, D-arginine]",conversion (%) after 1.0 hrs,Calf liver arginase [1]; Ratio L/D-Arg 50:50 (DL),15.6%
same,conversion (%) after 1.5 hrs,Calf liver arginase [1]; Ratio L/D-Arg 50:50 (DL),19.4%
same,conversion (%) after 2.0 hrs,Calf liver arginase [1]; Ratio L/D-Arg 50:50 (DL),26.4%
same,"ro, arginase",Calf liver arginase [1]; Ratio L/D-Arg 50:50 (DL),0.097 mol/L/h
same,"ro, arginase %",Calf liver arginase [1]; Ratio L/D-Arg 50:50 (DL),59.5%
same,conversion (%) after 1.0 hrs,Calf liver arginase [1]; Ratio L/D-Arg 60:40,22.2%
same,conversion (%) after 1.5 hrs,Calf liver arginase [1]; Ratio L/D-Arg 60:40,32.2%
same,conversion (%) after 2.0 hrs,Calf liver arginase [1]; Ratio L/D-Arg 60:40,35.4%
same,"ro, arginase",Calf liver arginase [1]; Ratio L/D-Arg 60:40,0.1376 mol/L/h
same,"ro, arginase %",Calf liver arginase [1]; Ratio L/D-Arg 60:40,73.6%
same,conversion (%) after 1.0 hrs,Calf liver arginase [1]; Ratio L/D-Arg 70:30,24.6%
same,conversion (%) after 1.5 hrs,Calf liver arginase [1]; Ratio L/D-Arg 70:30,31.8%
same,conversion (%) after 2.0 hrs,Calf liver arginase [1]; Ratio L/D-Arg 70:30,35.4%
same,"ro, arginase",Calf liver arginase [1]; Ratio L/D-Arg 70:30,0.1380 mol/L/h
same,"ro, arginase %",Calf liver arginase [1]; Ratio L/D-Arg 70:30,73.8%
same,conversion (%) after 1.0 hrs,Calf liver arginase [1]; Ratio L/D-Arg 85:15,25.1%
same,conversion (%) after 1.5 hrs,Calf liver arginase [1]; Ratio L/D-Arg 85:15,34.8%
same,conversion (%) after 2.0 hrs,Calf liver arginase [1]; Ratio L/D-Arg 85:15,40.2%
same,"ro, arginase",Calf liver arginase [1]; Ratio L/D-Arg 85:15,0.150 mol/L/h
same,"ro, arginase %",Calf liver arginase [1]; Ratio L/D-Arg 85:15,80.3%
same,kind of inhibition / substrate behaviour,Calf liver arginase [1],neither a substrate of arginase nor a non-competitive inhibitor
